Source: PubChem BioAssay (NCI)
Several values for one entry are separate records, joined by “and”; a condition that tells them apart may be missing. Identical values can stand only once.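 96-well plates; 48 h exposure; 5 concentrations. Endpoints by linear interpolation between flanking doses. Not reached: highest tested concentration assigned. GI50 = concentration required for 50% inhibition of growth. Definition used: TGI = concentration required for complete inhibition of growth.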

Legend:
Test in all cases: growth of human tumour cells (NCI), 48 h
[1] = tested on: IGROV1 ovarian
[2] = tested on: UACC-257 melanoma
[3] = tested on: SNB-19 CNS
[4] = tested on: LOX IMVI melanoma
[5] = tested on: U251 CNS
[6] = tested on: PC-3 prostate
[7] = tested on: MCF7 breast
[8] = tested on: DU-145 prostate
[9] = tested on: SR leukemia
[10] = tested on: HS 578T breast

| Compound | GI50 [1] | TGI [1] | GI50 [2] | TGI [2] | GI50 [3] | TGI [3] | GI50 [4] | TGI [4] | TGI [5] | TGI [6] | TGI [7] | TGI [8] | TGI [9] | GI50 [5] | GI50 [6] | GI50 [7] | GI50 [8] | GI50 [10] | TGI [10] | GI50 [9] |
| --- | --- | --- | --- | --- | --- | --- | --- | --- | --- | --- | --- | --- | --- | --- | --- | --- | --- | --- | --- | --- |
| CC[O-].CC[O-].O=C1C(=C([O-])c2ccccc2)C(=O)c2ccccc21.O=C1C(=C([O-])c2ccccc2)C(=O)c2ccccc21.[Ti+4] | > 100 µM | > 100 µM | > 100 µM | > 100 µM | 29 µM | 93 µM | > 100 µM | > 100 µM |  |  |  |  |  |  |  |  |  |  |  |  |
| Nc1c(C(=O)Nc2ccc([As](=O)(O)O)cc2)cnc2nnnn12 |  | > 100 µM |  | > 100 µM |  | > 100 µM |  | > 100 µM | > 100 µM | > 100 µM | > 100 µM | > 100 µM | > 100 µM |  |  |  |  |  |  |  |
| CSc1nc2c(c(O)c(C)c(=O)n2C2OC(COC(C)=O)C(OC(C)=O)C(OC(C)=O)C2OC(C)=O)c(=O)n1C (centres undefined) |  | > 100 µM |  | > 100 µM |  | > 100 µM |  | > 100 µM | > 100 µM |  |  |  |  |  |  |  |  |  |  |  |
| COC(=O)c1nc(NN)[nH]c(=O)c1CCCCCc1c(C(=O)OC)[nH]c(NN)cc1=O |  | > 100 µM |  | > 100 µM |  | > 100 µM |  | > 100 µM | > 100 µM |  |  |  | > 58.9 µM |  |  |  |  |  |  |  |
| CC(=O)c1cccc(N(/C=C/C(=O)C(F)(F)F)CC(=O)c2ccc(Cl)cc2)c1 | > 100 µM | > 100 µM | > 100 µM | > 100 µM |  |  | > 100 µM | > 100 µM | > 100 µM | > 100 µM | > 100 µM | > 100 µM |  | > 100 µM | > 100 µM | > 100 µM | > 100 µM | > 100 µM | > 100 µM |  |
| CN1C2CC(C#N)C1C=CC2=O (centres undefined) | 42.8 µM and > 100 µM | > 100 µM |  |  |  | > 100 µM |  |  | 61.5 µM and > 100 µM | 92.1 µM and > 100 µM | > 100 µM | 61.1 µM and > 100 µM | > 100 µM | 12.4 µM and 72.1 µM | 26.3 µM and > 100 µM |  | 22.8 µM and 58.9 µM | 35.4 µM and > 100 µM | > 100 µM | 24.2 µM and 86.1 µM |
| CC12CC3(C)CC(C)(C1)CC(N=[N+]=[N-])(C2)C3 |  | > 100 µM |  | > 100 µM |  | > 100 µM |  | > 100 µM | > 100 µM |  |  |  | > 100 µM |  |  |  |  |  |  |  |
| O=C(CC(C(=O)c1cccs1)c1ccc2c(c1)OCO2)c1ccc(Br)cc1 (centres undefined) |  | > 100 µM |  | > 100 µM |  | > 100 µM |  |  | > 100 µM | > 100 µM | > 100 µM | > 100 µM | > 100 µM |  |  |  |  |  |  |  |
| Cc1cc(Cl)ccc1NC(=O)C(=O)Cc1nc2ccc(C(=O)c3ccccc3)cc2[nH]c1=O |  | > 100 µM |  | > 100 µM |  | > 100 µM |  | > 100 µM |  |  |  |  | > 100 µM |  |  |  |  |  |  |  |
| Clc1ccc([O][In]([O]c2ccc(Cl)cn2)[O]c2ccc(Cl)cn2)nc1 | > 100 µM | > 100 µM | > 100 µM | > 100 µM | > 100 µM | > 100 µM | > 100 µM | > 100 µM | > 100 µM |  |  |  | > 100 µM | > 100 µM |  |  |  |  |  | > 100 µM |
| COc1ccc(C(C2=C(C)C(=O)c3ccccc3C2=O)c2ccc(C(C)C)cc(=O)c2O)cc1 (centres undefined) |  | 12.6 µM |  |  |  |  |  | 17.6 µM | 10.9 µM |  |  |  | 21.3 µM |  |  |  |  |  |  |  |
| CC(C)N(C(=O)C12C3C4C1C1C2C3C41C(O)C(C)(C)C)C(C)C (centres undefined) |  | > 50 µM |  |  |  | > 50 µM |  |  | > 50 µM |  |  |  | > 50 µM |  |  |  |  |  |  |  |
| Fc1cccc(Cl)c1C1SCc2nc3ccccc3n21 (centres undefined) |  | > 100 µM |  | 72.7 µM |  | > 100 µM |  | 38 µM | 89.7 µM |  |  |  | 54.4 µM |  |  |  |  |  |  |  |
| CC(=O)N(CCN)CCN |  |  |  | > 10 µM |  | > 10 µM |  | > 10 µM | > 10 µM |  |  |  | > 10 µM |  |  |  |  |  |  |  |
| C/C(=N/N(C=O)C[n+]1ccccc1)C(CN(CC(C)C)CC(C)C)C(=O)Nc1ccc(C)cc1C (centres undefined) |  | > 100 µM |  | > 100 µM |  | > 100 µM |  |  |  |  |  |  | > 100 µM |  |  |  |  |  |  |  |
| CC(C)c1ccc2nc3ccc(C(=O)NCCN(C)C)cn3c(=O)c2c1 |  | > 100 µM |  | 27.8 µM |  | > 100 µM |  |  | 39.9 µM | 30.6 µM | 30.8 µM | > 100 µM | 63 µM |  |  |  |  |  | 35.6 µM |  |
| CC(C)N(C(C)C)[PH+]1O[PH+](N(C(C)C)C(C)C)O[PH+](N(C(C)C)C(C)C)O[PH+](N(C(C)C)C(C)C)O[PH+](N(C(C)C)C(C)C)O1.[C-]#[O+].[C-]#[O+].[C-]#[O+].[C-]#[O+].[C-]#[O+].[C-]#[O+].[C-]#[O+].[Cr].[Cr] (centres undefined) | > 100 µM | > 100 µM | > 100 µM | > 100 µM | > 100 µM | > 100 µM | > 100 µM | > 100 µM | > 100 µM |  |  |  |  | > 100 µM |  |  |  |  |  |  |
| Clc1ccccc1NN(Cc1ccccn1)c1ccccc1Cl |  | 42.2 µM |  |  |  | 79.7 µM |  | 32.8 µM | 29.6 µM | > 100 µM | > 100 µM | > 100 µM | 34.1 µM |  |  |  |  |  | 63.9 µM |  |
| Cc1cc(O)c2c(c1)C(O)(c1ccc3c(c1O)C(=O)c1c(O)cc(C)cc1C3(O)C1OC(CO)C(O)C(O)C1O)c1cccc(O)c1C2=O (centres undefined) |  | 28.1 µM |  | 28.7 µM |  | 30.2 µM |  | 28 µM | 23.8 µM |  |  |  | 30.9 µM |  |  |  |  |  |  |  |
| COc1cc2nncc(Sc3cnnc4ccccc34)c2cc1OC |  | > 100 µM |  | 68 µM |  | 42.3 µM |  | 63.8 µM | 67.5 µM |  |  |  |  |  |  |  |  |  |  |  |
| COc1ccc(-n2nnc3c(sc4ccccc43)c2=O)cc1 |  |  | > 100 µM | > 100 µM |  |  | > 100 µM | > 100 µM |  | > 100 µM | > 100 µM | > 100 µM |  |  | > 100 µM | > 100 µM | > 100 µM |  |  |  |
| COc1ccc2nc(-c3ccccc3)cc(Nc3cccc(/C(C)=N\O)c3)c2c1 | 24.4 µM | > 100 µM | 19.4 µM | > 100 µM | 32.9 µM | > 100 µM |  |  | 48.5 µM | 26.3 µM | > 100 µM | 31.9 µM | > 100 µM | 6.05 µM | 4.72 µM | 16.8 µM | 6.46 µM | 9.05 µM | 79.2 µM | 3.36 µM |
